Reference: US7935673B2, “Polyphenol glycoside isolated from acerola” (Nichirei Biosciences, Inc., priority 2004, dated 2011)

Columns and labels:
[1] = Antioxidative activity measurement by DPPH radical scavenging; assay type: biochemical; conditions: for DPPH radical 50% scavenging concentration: 30° C., 30 minutes, absorbance at 517 nm; for radical scavenging activity compared with α-tocopherol: DPPH reagent, result in words
Method: Antioxidative activity was evaluated with the use of a stable-radical diphenyl-p-picrylhydradil (DPPH)/ethanol solution. 400 μl of a sample/methanol solution was mixed with 1600 μl of 250 mM acetate buffer (pH=5.5) and 1200 μl of ethanol, at a different concentration, followed by preincubation at 30° C. for 5 minutes. Then, 800 μl of a 500 μM DPPH/ethanol solution was added to each resulting solution, followed by mixing. Each resultant was allowed to stand at 30° C. for 30 minutes, followed by measurement of absorbance at 517 nm. α-tocopherol was also subjected to the same operation. The obtained solution was thus designated as a positive control. A blank solution used was prepared by the same operation with the use of methanol instead of a sample solution. Based on absorbances measured, radical scavenging rates were calculated based on the following equation. Scavenging rate(%)=(1−[Absorbance of a sample]/[Absorbance of a blank])×100 [Equation 1]
The concentration of a sample solution was changed stepwise for the measurement of the aforementioned scavenging rate. As a result, the concentration of a sample solution at which the DPPH radical scavenging rate was 50% was obtained so as to be designated as the DPPH radical 50% scavenging concentration. The lower such value, the higher the radical scavenging capacity.

[2] = system: α-glucosidase (yeast-derived reagent); experiment: α-Glucosidase inhibitory activity (maltose substrate); assay type: biochemical; conditions: for IC50: yeast-derived α-glucosidase, maltose substrate, 37° C., 60 minutes, read-out: 50% α-glucosidase inhibition concentration
Method: A yeast-derived reagent (Wako Pure Chemical) was used as an α-glucosidase. The reagent was dissolved in 10 mM phosphate buffer (pH 7.0) containing 0.2% bovine serum albumin.
In the experiment, 0.25 mL of 100 mM phosphate buffer, 0.25 mL of each sample solution at a different concentration, and 0.125 mL of a maltose aqueous solution serving as a substrate at a concentration of 10 mg/mL were mixed, followed by heating at 37° C. for 5 minutes. Then, 0.125 mL of an α-glucosidase solution was added thereto, followed by enzyme treatment at 37° C. for 60 minutes. As a reaction termination solution, 0.5 mL of a 0.2 M sodium carbonate solution was added to each resultant, followed by mixing. The glucose concentration of each reaction solution was measured using Glucose CII-Test Wako (Wako Pure Chemical). An inhibition rate (%) was calculated based on a proportion of the glucose concentration of a solution to which a sample had been added to the glucose concentration of a blank solution to which no sample had been added. Then, the concentration of each sample at which 50% enzyme activity was inhibited was calculated based on such inhibition rate derived from the concentration of the sample, followed by comparison.

[3] = result in words; cited from earlier work

## OCC1OC2O[C@@H]3[C@@H](c4ccc(O)c(O)c4)Oc4cc(O)cc(O)c4[C@@H]3OC2C(O)C1O (stereo in doubt) [Product of the present invention]
[1]
  DPPH radical 50% scavenging concentration: 0.080 mg/mL
  radical scavenging activity compared with α-tocopherol: comparable to or exceeding that of α-tocopherol
[1]; listed as novel polyphenol glycoside of the present invention
  radical scavenging activity compared with α-tocopherol: almost comparable to that of α-tocopherol
[2]; result in words
  glucosidase inhibitory activity compared with isoquercitrin: several times stronger than that of isoquercitrin
  glucosidase inhibitory activity compared with taxifolin: several times stronger
[2]; result in words, listed as polyphenol glycoside of the present invention
  glucosidase inhibitory activity compared with taxifolin: several times stronger than that of taxifolin
[2]
  IC50: 164 µM

## O=c1c(OC2OC(CO)C(O)C(O)C2O)c(-c2ccc(O)c(O)c2)oc2cc(O)cc(O)c12 (centres unmarked) [Isoquercitrin, quercetin-3-glucoside, reference compound]
[2]
  IC50: 727 µM

## O=C1c2c(O)cc(O)cc2O[C@H](c2ccc(O)c(O)c2)[C@H]1O [Taxifolin, taxifolin, reference compound]
[2]
  IC50: 892 µM

## Cc1c(C)c2c(c(C)c1O)CC[C@@](C)(CCC[C@H](C)CCC[C@H](C)CCCC(C)C)O2 [α-tocopherol, reference compound]
[3]
  solubility in water: insoluble in water
[1]
  DPPH radical 50% scavenging concentration: 0.127 mg/mL
